Measured values from patent US10508085B2, “Compounds and methods for IDO and TDO modulation, and indications therefor” (Plexxikon Inc., priority 2016, dated 2019).

Experiments:
[1] = biological target: T1, Human Indoleamine 2,3-dioxygenase (IDO) (Homo sapiens, UniProt P14902); assay: Human IDO enzymatic assay (kynurenine level); type: biochemical; conditions: 6 nM IDO, 10 μM L-Trp; geometric mean; read-out: IDO1 GMean: IC50 (μM) (Biochemical Assay)
T1 construct: His tag (N); made in house; host or cells: E. coli
T1 sequence (P14902 whole entry): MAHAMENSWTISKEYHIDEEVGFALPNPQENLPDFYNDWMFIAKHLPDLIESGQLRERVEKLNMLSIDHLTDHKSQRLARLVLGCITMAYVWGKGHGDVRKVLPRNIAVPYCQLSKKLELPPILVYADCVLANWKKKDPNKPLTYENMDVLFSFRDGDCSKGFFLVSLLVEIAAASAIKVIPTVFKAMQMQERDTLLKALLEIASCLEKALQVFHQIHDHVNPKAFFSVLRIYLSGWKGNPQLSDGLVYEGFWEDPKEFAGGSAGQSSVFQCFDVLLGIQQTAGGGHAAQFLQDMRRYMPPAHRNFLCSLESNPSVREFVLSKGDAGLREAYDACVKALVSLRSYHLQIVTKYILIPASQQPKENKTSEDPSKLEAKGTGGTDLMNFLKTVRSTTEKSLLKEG
Method in brief: (§1)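 Reactions were stopped with TCA, converting N-formylkynurenine to kynurenine for quantitation, with IC50 by nonlinear regression. IDO: 6 nM enzyme, 10 μM L-Trp, 20 min RT. TDO: 1 nM enzyme, 350 μM L-Trp, 70 min RT, both in pH 6.5 buffer.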

[2] = biological target: T2, Human Tryptophan 2,3-dioxygenase (TDO) (Homo sapiens, UniProt P48775); assay: Human TDO enzymatic assay (kynurenine level); type: biochemical; conditions: 1 nM TDO, 350 μM L-Trp; geometric mean; read-out: TDO GMean: IC50 (μM) (Biochemical Assay)
T2 construct: His tag (N); made in house; host or cells: E. coli
T2 sequence (P48775 whole entry): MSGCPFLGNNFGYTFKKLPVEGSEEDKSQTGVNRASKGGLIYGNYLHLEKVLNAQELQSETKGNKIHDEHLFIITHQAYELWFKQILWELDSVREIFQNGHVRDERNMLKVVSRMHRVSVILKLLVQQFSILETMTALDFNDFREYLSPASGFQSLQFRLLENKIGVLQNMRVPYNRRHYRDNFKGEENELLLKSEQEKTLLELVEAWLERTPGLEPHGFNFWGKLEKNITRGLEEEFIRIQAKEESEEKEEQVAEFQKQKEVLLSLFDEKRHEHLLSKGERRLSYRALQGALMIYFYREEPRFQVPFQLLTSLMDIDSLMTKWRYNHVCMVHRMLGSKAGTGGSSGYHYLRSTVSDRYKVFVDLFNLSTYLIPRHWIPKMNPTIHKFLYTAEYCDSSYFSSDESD
Method in brief: as §1

[3] = biological target: T3, human IDO (IDO1-expressing HEK293 cells) (Homo sapiens, UniProt P14902); assay: Cell based kynurenine assay, IDO1-expressing HEK293 cell clones; conditions: IDO1-expressing HEK293 cells, 24 hours incubation; geometric mean; read-out: HEK293 IDO1 Kynurenine GMean IC50 (μM) (Cellular Assay)
T3 construct: expressed in transfected cells
T3 sequence (P14902 whole entry): as the sequence (P14902 whole entry) above
Method in brief: (§2)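 Kynurenine in culture supernatant read after 24 h compound exposure of HEK293 cells stably expressing human IDO1 or TDO. IC50 from nonlinear regression of % inhibition relative to 0.2% DMSO cell (high) and media-only (low) controls.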

[4] = biological target: T4, human TDO (TDO-expressing HEK293 cells) (Homo sapiens, UniProt P48775); assay: Cell based kynurenine assay, TDO-expressing HEK293 cell clones; conditions: TDO-expressing HEK293 cells, 24 hours incubation; geometric mean; read-out: HEK293 TDO Kynurenine GMean IC50 (μM) (Cellular Assay)
T4 construct: expressed in transfected cells
T4 sequence (P48775 whole entry): as the sequence (P48775 whole entry) above
Method in brief: as §2

Compound	IC50 [1]	IC50 [2]	IC50 [3]	IC50 [4]
CC(C)(C1CCN(C(=O)Nc2ccccc2C#N)CC1)C(O)c1cc(Cl)cc2cn[nH]c12 (centres unmarked) [Compound P-0180, 4-(1-(5-chloro-1H-indazol-7-yl)-1-hydroxy-2-methylpropan-2-yl)-N-(2-cyanophenyl)piperidine-1-carboxamide]	0.0001 to 10 µM	0.0001 to 10 µM	0.0001 to 10 µM	0.0001 to 10 µM
Cc1cccc(NC(=O)N2CCC(C(C)(C)C(O)c3cc(Cl)cc4cn[nH]c34)CC2)c1 (centres unmarked) [Compound P-0181, 4-(1-(5-chloro-1H-indazol-7-yl)-1-hydroxy-2-methylpropan-2-yl)-N-(m-tolyl)piperidine-1-carboxamide]	0.0001 to 10 µM	0.0001 to 10 µM	0.0001 to 10 µM	0.0001 to 10 µM
COc1cccc(NC(=O)N2CCC(C(C)(C)C(O)c3cc(Cl)cc4cn[nH]c34)CC2)c1 (centres unmarked) [Compound P-0182, 4-(1-(5-chloro-1H-indazol-7-yl)-1-hydroxy-2-methylpropan-2-yl)-N-(3-methoxyphenyl)piperidine-1-carboxamide]	0.0001 to 10 µM	0.0001 to 10 µM	0.0001 to 10 µM	0.0001 to 10 µM
COc1ccc(NC(=O)N2CCC(C(C)(C)C(O)c3cc(Cl)cc4cn[nH]c34)CC2)cc1 (centres unmarked) [Compound P-0183, 4-(1-(5-chloro-1H-indazol-7-yl)-1-hydroxy-2-methylpropan-2-yl)-N-(4-methoxyphenyl)piperidine-1-carboxamide]	0.0001 to 10 µM	0.0001 to 10 µM	0.0001 to 10 µM	0.0001 to 10 µM
CC(C)(C1CCN(C(=O)Nc2ccccc2Cl)CC1)C(O)c1cc(Cl)cc2cn[nH]c12 (centres unmarked) [Compound P-0184, 4-(1-(5-chloro-1H-indazol-7-yl)-1-hydroxy-2-methylpropan-2-yl)-N-(2-chlorophenyl)piperidine-1-carboxamide]	0.0001 to 10 µM	0.0001 to 10 µM	0.0001 to 10 µM	0.0001 to 10 µM
O=C(NC1CC1)N1CCC(C(F)(F)C(O)c2cc(Cl)cc3cn[nH]c23)CC1 (centres unmarked) [Compound P-0185, 4-(2-(5-chloro-1H-indazol-7-yl)-1,1-difluoro-2-hydroxyethyl)-N-cyclopropylpiperidine-1-carboxamide]	0.0001 to 10 µM	0.0001 to 10 µM	0.0001 to 10 µM	0.0001 to 10 µM
OC(c1cc(Cl)cc2cn[nH]c12)C1(C2CCC2)CCC1 (centres unmarked) [Compound P-0186, [1,1′-bi(cyclobutan)]-1-yl(5-chloro-1H-indazol-7-yl)methanol]	0.0001 to 10 µM	0.0001 to 10 µM	0.0001 to 10 µM	0.0001 to 10 µM
OC(c1cc(Cl)cc2cn[nH]c12)C1(C2CCCCC2)CC1 (centres unmarked) [Compound P-0187, (5-chloro-1H-indazol-7-yl)(1-cyclohexylcyclopropyl)methanol]	0.0001 to 10 µM	0.0001 to 10 µM	0.0001 to 10 µM	0.0001 to 10 µM
OC(c1cc(Cl)cc2cn[nH]c12)C1(Cc2cccc(F)c2)CCC1 (centres unmarked) [Compound P-0188, (5-chloro-1H-indazol-7-yl)(1-(3-fluorobenzyl)cyclobutyl)methanol]	0.0001 to 10 µM	0.0001 to 10 µM	0.0001 to 10 µM	> 10 µM
O=S1(=O)CC(O)(c2cc(Cl)cc3cn[nH]c23)C1 [Compound P-0189, 3-(5-chloro-1H-indazol-7-yl)-3-hydroxythietane 1,1-dioxide]	> 200 µM	> 200 µM	> 10 µM	0.0001 to 10 µM

Other lines, results leading:

IC50 [1]	IC50 [2]	IC50 [3]	IC50 [4]	Compound
0.0001 to 10 µM	0.0001 to 10 µM	0.0001 to 10 µM	0.0001 to 10 µM	O=C(Nc1ccc(F)cc1)N1CCC(C2(C(O)c3c(F)c(Cl)cc4cn[nH]c34)CC2)CC1 (centres unmarked) [Compound P-0164, 4-(1-((5-chloro-6-fluoro-1H-indazol-7-yl)(hydroxy)methyl)cyclopropyl)-N-(4-fluorophenyl)piperidine-1-carboxamide]
0.0001 to 10 µM	0.0001 to 10 µM	0.0001 to 10 µM	0.0001 to 10 µM	CS(=O)(=O)N1CCC(C2(C(O)c3c(F)c(Cl)cc4cn[nH]c34)CC2)CC1 (centres unmarked) [Compound P-0165, (5-chloro-6-fluoro-1H-indazol-7-yl)(1-(1-(methylsulfonyl)piperidin-4-yl)cyclopropyl)methanol]
0.0001 to 10 µM	0.0001 to 10 µM	0.0001 to 10 µM	0.0001 to 10 µM	Nc1nc(C(=O)N2CCC(C3(C(O)c4cc(Cl)cc5cn[nH]c45)CC3)CC2)cs1 (centres unmarked) [Compound P-0166, (2-aminothiazol-4-yl)(4-(1-((5-chloro-1H-indazol-7-yl)(hydroxy)methyl)cyclopropyl)piperidin-1-yl)methanone]
0.0001 to 10 µM	0.0001 to 10 µM	0.0001 to 10 µM	0.0001 to 10 µM	CC(C)(C1CCN(C(=O)Nc2ccc(F)cc2)CC1)C(O)c1cc(Cl)cc2cn[nH]c12 (centres unmarked) [Compound P-0167, 4-(1-(5-chloro-1H-indazol-7-yl)-1-hydroxy-2-methylpropan-2-yl)-N-(4-fluorophenyl)piperidine-1-carboxamide]
0.0001 to 10 µM	0.0001 to 10 µM	0.0001 to 10 µM	0.0001 to 10 µM	CC(C)(C1CCN(C(=O)Nc2ccc(C#N)cc2)CC1)C(O)c1cc(Cl)cc2cn[nH]c12 (centres unmarked) [Compound P-0168, 4-(1-(5-chloro-1H-indazol-7-yl)-1-hydroxy-2-methylpropan-2-yl)-N-(4-cyanophenyl)piperidine-1-carboxamide]
0.0001 to 10 µM	0.0001 to 10 µM	0.0001 to 10 µM	0.0001 to 10 µM	CNC(=O)N1CCC(C(C)(C)C(O)c2cc(Cl)cc3[nH]ncc23)CC1 (centres unmarked) [Compound P-0169, 4-(1-(6-chloro-1H-indazol-4-yl)-1-hydroxy-2-methylpropan-2-yl)-N-methylpiperidine-1-carboxamide]
0.0001 to 10 µM	0.0001 to 10 µM	> 10 µM	> 10 µM	CCC(=O)NC(C)(C)CC(O)c1cc(Cl)cc2cn[nH]c12 (centres unmarked) [Compound P-0170, N-(4-(5-chloro-1H-indazol-7-yl)-4-hydroxy-2-methylbutan-2-yl)propionamide]
0.0001 to 10 µM	0.0001 to 10 µM	> 10 µM	0.0001 to 10 µM	CC(C)(C1CCN(S(C)(=O)=O)CC1)C(O)c1cc(Cl)cc2[nH]ncc12 (centres unmarked) [Compound P-0171, 1-(6-chloro-1H-indazol-4-yl)-2-methyl-2-(1-(methylsulfonyl)piperidin-4-yl)propan-1-ol]
0.0001 to 10 µM	0.0001 to 10 µM	0.0001 to 10 µM	0.0001 to 10 µM	CC(=O)N1CCC(C(C)(C)C(O)c2cc(Cl)cc3[nH]ncc23)CC1 (centres unmarked) [Compound P-0172, 1-(4-(1-(6-chloro-1H-indazol-4-yl)-1-hydroxy-2-methylpropan-2-yl)piperidin-1-yl)ethan-1-one]
0.0001 to 10 µM	0.0001 to 10 µM	> 10 µM	0.0001 to 10 µM	OC(c1cc(Cl)cc2[nH]ncc12)C1CCCCC1 (centres unmarked) [Compound P-0173, (6-chloro-1H-indazol-4-yl)(cyclohexyl)methanol]
0.0001 to 10 µM	0.0001 to 10 µM	0.0001 to 10 µM	0.0001 to 10 µM	CC(C)(C1CCOCC1)C(O)c1cc(Cl)cc2[nH]ncc12 (centres unmarked) [Compound P-0174, 1-(6-chloro-1H-indazol-4-yl)-2-methyl-2-(tetrahydro-2H-pyran-4-yl)propan-1-ol]
0.0001 to 10 µM	0.0001 to 10 µM	0.0001 to 10 µM	0.0001 to 10 µM	CC(C)(C1CCN(C(=O)NCC(F)(F)F)CC1)C(O)c1cc(Cl)cc2cn[nH]c12 (centres unmarked) [Compound P-0175, 4-(1-(5-chloro-1H-indazol-7-yl)-1-hydroxy-2-methylpropan-2-yl)-N-(2,2,2-trifluoroethyl)piperidine-1-carboxamide]
0.0001 to 10 µM	0.0001 to 10 µM	0.0001 to 10 µM	0.0001 to 10 µM	CC(C)(C1CCN(C(=O)NC2CC2)CC1)C(O)c1cc(Cl)cc2cn[nH]c12 (centres unmarked) [Compound P-0176, 4-(1-(5-chloro-1H-indazol-7-yl)-1-hydroxy-2-methylpropan-2-yl)-N-cyclopropylpiperidine-1-carboxamide]
0.0001 to 10 µM	0.0001 to 10 µM	0.0001 to 10 µM	0.0001 to 10 µM	CC(C)(C1CCN(C(=O)OCC(F)(F)F)CC1)C(O)c1cc(Cl)cc2cn[nH]c12 (centres unmarked) [Compound P-0177, 2,2,2-trifluoroethyl 4-(1-(5-chloro-1H-indazol-7-yl)-1-hydroxy-2-methylpropan-2-yl)piperidine-1-carboxylate]
0.0001 to 10 µM	0.0001 to 10 µM	0.0001 to 10 µM	0.0001 to 10 µM	CC(C)(C1CCN(C(=O)Nc2ccccc2F)CC1)C(O)c1cc(Cl)cc2cn[nH]c12 (centres unmarked) [Compound P-0178, 4-(1-(5-chloro-1H-indazol-7-yl)-1-hydroxy-2-methylpropan-2-yl)-N-(2-fluorophenyl)piperidine-1-carboxamide]
0.0001 to 10 µM	0.0001 to 10 µM	0.0001 to 10 µM	0.0001 to 10 µM	COc1ccccc1NC(=O)N1CCC(C(C)(C)C(O)c2cc(Cl)cc3cn[nH]c23)CC1 (centres unmarked) [Compound P-0179, 4-(1-(5-chloro-1H-indazol-7-yl)-1-hydroxy-2-methylpropan-2-yl)-N-(2-methoxyphenyl)piperidine-1-carboxamide]
